Experimental data taken from patent US8541476B2, “Compounds for treatment of malignant tumors” (The Trustees of the University of Pennsylvania, priority 2007, dated 2013).

Assays:
U251 cells = assay: MIT assay, radiosensitizing effects of NS-160; format: cell-based, human; conditions: U251, 8 hour pretreatment, 0.2 μM, IR dose of 4 Gy
Description: The dose-dependent radiosensitizing effects of NS-160 were investigated using an 8 hour pretreatment of 0.02 μM, 0.2 μM, and 2.0 μM NS-160 in U251 cells (FIG. 9). […] Therefore, NS-160 can act as a true radiosensitizer at low μM concentrations.

zebrafish (ZF) embryos = assay: Zebrafish embryo development and survival after drug plus IR; format: in vivo, Danio rerio
Description: ZF were raised in accordance with previously established protocols (McAleer, et al., 2005, J. Radiat. Oncol. Biol. Phys. 61:10-3) at the University of Pennsylvania School of Medicine. Embryos were maintained at 30° C. after transplantation procedures. The age of embryos is indicated as the hours post-fertilization (hpf) and days post-fertilization (dpf) for all experimental data shown. […] Radiat. Oncol. Biol. Phys. 61:10-3) immediately after photography at 24 hpf. […]
The radiosensitizing effects of NS-123 on human cancer cells but not normal cells prompted us to examine the potential of NS-123 in vivo. Zebra fish (ZF) (Danio rerio) embryos provide an unique vertebrate model that is ideal for the screening of therapeutic agents because of their close genetic and physiological homology to upper level vertebrates such as mammals, their rapid embryonic development, optical clarity, and suitability for investigations regarding the effects of radiation and radiosensitizers (Geiger et al., 2006, Cancer Res. 66:8172-8181; McAleer et al., 2005, Int. J. Radiat. Oncol. Biol. Phys. 61:10-13). These features allow the efficient screening of novel drugs and observation of effects on specific organs without the need for euthanization and necroscopy. The ZF embryos were pretreated for 8 hours with 5 μM NS-123 prior to 6 Gy of radiation.

Row | Compound | radiosensitization (U251 cells) | embryonic development and viability after IR (zebrafish (ZF) embryos; 5 μM NS-123 (1 μM staurosporine) 8 hours before 6 Gy) | morphologic effects in developing ZF with IR (zebrafish (ZF) embryos; drug + IR)
1 | N#Cc1ccc(Br)c([N+](=O)[O-])c1 [NS-160, 4-bromo-3-nitrobenzonitrile] | Radiosensitization was evident |  | 
2 | CN[C@@H]1C[C@H]2O[C@@](C)([C@@H]1OC)n1c3ccccc3c3c4c(c5c6ccccc6n2c5c31)C(=O)NC4 [Staurosporine] |  | greatly diminished the viability and development | morphologic changes consistent with increased toxicity
